These results are taken from US11413292B2, “Tricyclic heterocycle compounds useful as HIV integrase inhibitors” (Merck Sharp & Dohme Corp., priority 2018, dated 2022).

For this test, the system named is HIV-1 (H9/IIIB strain) virus. Kind of test: microbe, parasite or virus in culture. As to conditions: MT4-GFP cells infected with HIV-1 H9/IIIB, inhibition of reproductive ratio. It counts as cell-based.
Where [1] appears, read: 0% NHS condition (RPMI 1640), read-out: Viking, IC50 (0% NHS).
Where [2] appears, read: 100% normal human serum (NHS) condition, read-out: Viking, IC50 (100% NHS).

Like-named read-outs stand apart in the source and are kept apart here.

The IC50 is the concentration that inhibits the measured activity by half. On to `COC1CCN2CN(CC1)n1cc(C(=O)NCc3ccc(F)cc3F)c(=O)c(O)c1C2=O` (single isomer, unassigned) [Example 20D], for which the 50% inhibitory concentration (IC50) is, setting by setting: under setting [1], 2.1 nM; under setting [2], 212 nM.
With `COC1CCN2CN(CC1)n1cc(C(=O)NCc3ccc(F)c(Cl)c3F)c(=O)c(O)c1C2=O` (single isomer, unassigned) [Example 21A], the IC50 was 2.5 nM under setting [1] and 2520 nM under setting [2].
The matching figures for `COC1CCN2CN(CC1)n1cc(C(=O)NCc3ccc(F)c(Cl)c3F)c(=O)c(O)c1C2=O` (single isomer, unassigned) [Example 21B]: 0.9 nM and 207 nM.
Taken in the same sequence, the figures for `COC1CCN2CN(CC1)n1cc(C(=O)NCc3ccc(F)c(Cl)c3F)c(=O)c(O)c1C2=O` (single isomer, unassigned) [Example 21C] were 1.7 nM and 311 nM.
Taken in the same sequence, the figures for `COC1CCN2CN(CC1)n1cc(C(=O)NCc3ccc(F)c(Cl)c3F)c(=O)c(O)c1C2=O` (single isomer, unassigned) [Example 21D] were 2 nM and 472 nM.
As for `COC1CCN2CN(CC1)n1cc(C(=O)NCc3c(F)cccc3F)c(=O)c(O)c1C2=O` (single isomer, unassigned) [Example 22A], the IC50 runs as follows: under setting [1], 8.2 nM; under setting [2], 333 nM.
Taken in the same sequence, the figures for `COC1CCN2CN(CC1)n1cc(C(=O)NCc3c(F)cccc3F)c(=O)c(O)c1C2=O` (single isomer, unassigned) [Example 22B] were 1.6 nM and 161 nM.
Take `COC1CCN2CN(CC1)n1cc(C(=O)NCc3c(F)cccc3F)c(=O)c(O)c1C2=O` (single isomer, unassigned) [Example 22C]: the half-inhibitory concentration (IC50) stood at 2 nM under setting [1] and 88 nM under setting [2].
`COC1CCN2CN(CC1)n1cc(C(=O)NCc3c(F)cccc3F)c(=O)c(O)c1C2=O` (single isomer, unassigned) [Example 22D]: the IC50 came to 1.4 nM under setting [1] and 311 nM under setting [2].
On to `COC1CCN2CN(CC1)n1cc(C(=O)NCc3cccc(F)c3F)c(=O)c(O)c1C2=O` (single isomer, unassigned) [Example 23A], for which the concentration for half-maximal inhibition (IC50) runs as follows: under setting [1], 5.8 nM; under setting [2], 728 nM.
Regarding `COC1CCN2CN(CC1)n1cc(C(=O)NCc3cccc(F)c3F)c(=O)c(O)c1C2=O` (single isomer, unassigned) [Example 23B], the IC50 came to 2.1 nM under setting [1] and 314 nM under setting [2].
In the case of `COC1CCN2CN(CC1)n1cc(C(=O)NCc3cccc(F)c3F)c(=O)c(O)c1C2=O` (single isomer, unassigned) [Example 23C], the IC50 by setting is: under setting [1], 4.3 nM; under setting [2], 83 nM.
Regarding `COC1CCN2CN(CC1)n1cc(C(=O)NCc3cccc(F)c3F)c(=O)c(O)c1C2=O` (single isomer, unassigned) [Example 23D], the IC50 under setting [1] came to 1.9 nM and the IC50 under setting [2] was found to be 567 nM.
The matching figures for `O=C(NCc1ccc(F)cc1F)c1cn2c(c(O)c1=O)C(=O)N1CCCCN2C1` [Example 2A]: 4.04 nM and 4160 nM.
Taken in the same sequence, the figures for `O=C(NCc1ccc(F)cc1F)c1cn2c(c(O)c1=O)C(=O)N1CCCCN2C1` [Example 2B] were 1.53 nM and 234 nM.
Turning to `O=C(NCc1ccc(F)cc1F)c1cn2c(c(O)c1=O)C(=O)N1CCCCCN2C1` [Example 8A], the IC50 runs as follows: under setting [1], 1.03 nM; under setting [2], 1570 nM.
In the case of `O=C(NCc1ccc(F)cc1F)c1cn2c(c(O)c1=O)C(=O)N1CCCCCN2C1` [Example 8B], the IC50 is, setting by setting: under setting [1], 0.86 nM; under setting [2], 122 nM.
Taken in the same sequence, the figures for `O=C(NCc1cccc(Cl)c1F)c1cn2c(c(O)c1=O)C(=O)N1CCCCCN2C1` [Example 9A] were 2.57 nM and 5620 nM.
The matching figures for `O=C(NCc1cccc(Cl)c1F)c1cn2c(c(O)c1=O)C(=O)N1CCCCCN2C1` [Example 9B]: 1.15 nM and 196 nM.
The matching figures for `O=C(NCc1ccc(F)c(Cl)c1F)c1cn2c(c(O)c1=O)C(=O)N1CCCCCN2C1` [Example 10A]: 1.89 nM and 8580 nM.
Turning to `O=C(NCc1ccc(F)c(Cl)c1F)c1cn2c(c(O)c1=O)C(=O)N1CCCCCN2C1` [Example 10B], the IC50 under setting [1] came to 1.65 nM and the IC50 under setting [2] amounted to 225 nM.
As to `O=C(NCc1c(F)ccc(Cl)c1F)c1cn2c(c(O)c1=O)C(=O)N1CCCCCN2C1` [Example 11A], the IC50 came to 3.45 nM under setting [1] and 12500 nM under setting [2].
Taken in the same sequence, the figures for `O=C(NCc1c(F)ccc(Cl)c1F)c1cn2c(c(O)c1=O)C(=O)N1CCCCCN2C1` [Example 11B] were 2.09 nM and 358 nM.
In the case of `O=C(NCc1c(F)ccc(Cl)c1F)c1cn2c(c(O)c1=O)C(=O)N1CCCCCCN2C1` [Example 12A], the IC50 under setting [1] was found to be 14.3 nM and the IC50 under setting [2] was 10700 nM.
With `O=C(NCc1c(F)ccc(Cl)c1F)c1cn2c(c(O)c1=O)C(=O)N1CCCCCCN2C1` [Example 12B], the IC50 runs as follows: under setting [1], 3.21 nM; under setting [2], 428 nM.
The matching figures for `O=C(NCc1cccc(Cl)c1F)c1cn2c(c(O)c1=O)C(=O)N1CCOCCN2C1` [Example 13A]: 2.74 nM and 3360 nM.
The matching figures for `O=C(NCc1cccc(Cl)c1F)c1cn2c(c(O)c1=O)C(=O)N1CCOCCN2C1` [Example 13B]: 2.19 nM and 146 nM.
For `O=C(NCc1c(F)cc(F)cc1F)c1cn2c(c(O)c1=O)C(=O)N1CCOCCN2C1` [Example 14A], the IC50 was found to be 5.4 nM under setting [1] and 4210 nM under setting [2].
Turning to `O=C(NCc1c(F)cc(F)cc1F)c1cn2c(c(O)c1=O)C(=O)N1CCOCCN2C1` [Example 14B], the IC50 under setting [1] was 1.66 nM and the IC50 under setting [2] is 157 nM.
Taken in the same sequence, the figures for `O=C(NCc1ccc(F)c(Cl)c1F)c1cn2c(c(O)c1=O)C(=O)N1CCOCCN2C1` [Example 15A] were 3.7 nM and 10700 nM.
`O=C(NCc1ccc(F)c(Cl)c1F)c1cn2c(c(O)c1=O)C(=O)N1CCOCCN2C1` [Example 15B]: the IC50 under setting [1] came to 1.61 nM and the IC50 under setting [2] came out at 224 nM.
The matching figures for `O=C(NCc1c(F)ccc(Cl)c1F)c1cn2c(c(O)c1=O)C(=O)N1CCOCCN2C1` [Example 16A]: 2.7 nM and 12300 nM.
In the case of `O=C(NCc1c(F)ccc(Cl)c1F)c1cn2c(c(O)c1=O)C(=O)N1CCOCCN2C1` [Example 16B], the IC50 reads like this: under setting [1], 1.2 nM; under setting [2], 247 nM.
Taken in the same sequence, the figures for `CN1CCN2CN(CC1)n1cc(C(=O)NCc3cccc(Cl)c3F)c(=O)c(O)c1C2=O` [Example 24A] were 5.1 nM and 665 nM.
Take `CN1CCN2CN(CC1)n1cc(C(=O)NCc3cccc(Cl)c3F)c(=O)c(O)c1C2=O` [Example 24B]: the IC50 by setting is: under setting [1], 3.5 nM; under setting [2], 485 nM.
Turning to `CN1CCN2CN(CC1)n1cc(C(=O)NCc3c(F)ccc(Cl)c3F)c(=O)c(O)c1C2=O` [Example 25A], the IC50 under setting [1] is 4.5 nM and the IC50 under setting [2] came to 1000 nM.
Taken in the same sequence, the figures for `CN1CCN2CN(CC1)n1cc(C(=O)NCc3c(F)ccc(Cl)c3F)c(=O)c(O)c1C2=O` [Example 25B] were 2.1 nM and 139 nM.
Taken in the same sequence, the figures for `O=C(NCc1ccc(F)cc1F)c1cn2c(c(O)c1=O)C(=O)N1CCC(F)(F)CCN2C1` [Example 26A] were 6.6 nM and 869 nM.
As for `O=C(NCc1ccc(F)cc1F)c1cn2c(c(O)c1=O)C(=O)N1CCC(F)(F)CCN2C1` [Example 26B], the IC50 is, setting by setting: under setting [1], 3.2 nM; under setting [2], 91 nM.
